In article PMC3551756, “HIV-1 Fusion Is Blocked through Binding of GB Virus C E2D Peptides to the HIV-1 gp41 Disulfide Loop” (PLoS ONE, 2013):

Legend:
[1] = tested on: HIV-1 NL4-3 / TZM-bl cells; experiment: HIV-1 virion-based (BlaM-Vpr) virus-cell fusion assay; settings: standard (pre-CD4 binding) and TAS (post-CD4 binding, 23°C 1 h then 37°C 2 hr); E2 peptides 20 µM, AMD-3100 10 µM, 2F5 0.5 µg/ml, b12 and B4 0.3 µg/ml; five independent experiments each in triplicate
Experimental: HIV-1 virions containing the BlaM-Vpr chimera were produced as previously described [33]. Briefly, 293T cells were co-transfected with pNL4-3 proviral DNA, pCMV-BlaM-Vpr, and pAdVAntage vectors. After 2 days of cultivation, the virus-containing supernatant was centrifuged for 10 min at 300×g to remove cellular debris. The HIV-1 virion-containing supernatant was overlaid onto a 20% sucrose cushion and ultracentrifuged at 35000×g at 4°C for 90 min. The resulting pellet was resuspended in medium and aliquots were frozen at −80°C until usage.
The virion-based fusion assay was performed essentially as described elsewhere [41]. Briefly, 5×10^4 TZM-bl cells were infected with sucrose-purified HIV-1 NL4-3 virions containing BlaM-Vpr (5 ng p24-Gag per approach). Under temperature-arrested state (TAS) conditions, binding of the HI virions to target cells was allowed at low temperature via spinning inoculation, for which virions were added to cells and centrifuged at 2095×g, 4°C for 30 min. […] BlaM activity was quantified using a fluorescence plate reader. The extent of virus-cell fusion was determined from the ratio of blue (460 nm) and green (510 nm) emission upon exciting the cells at 405 nm.
To find out whether early or late steps of HIV-1 entry are affected by the E2 peptides, the E2 peptide activity was determined before and after gp120/CD4 engagement using the Vpr-β-lactamase (Vpr-BlaM) enzyme-based virus-cell fusion assay under standard (pre-CD4 binding) and temperature-arrested state (TAS; post-CD4 binding) conditions, respectively.
The HIV-inhibitory activity of known HIV-1 entry inhibitors or respective E2 peptides was determined using a virus-cell fusion assay under standard (respective inhibitors were added simultaneously to HIV NL4-3BlaM-Vpr inoculum: pre-CD4 binding) or under TAS (temperature-arrested state) conditions (respective inhibitors were added at low temperature of 23°C for 1 h after spin-inoculation [4°C] and removal of unbound HIV-1 particles: post-CD4 binding). […] Percentages were calculated in relation to mock-treated cells. […]

gp41MN = experiment: Competitive ELISA, E2 peptides versus gp41 mAbs on immobilized gp41MN; assay type: binding, HIV-1; settings: increasing peptide, three independent experiments each in duplicate; for inhibition of F240 binding to gp41: mAb F240 (disulfide loop); for inhibition of F240 binding to gp41 / inhibition of T32 binding to gp41: immobilized gp41MN; for inhibition of T32 binding to gp41: mAb T32 (disulfide loop); for inhibition of gp41 binding of 246-D, D50, 5F3, 2F5, 4E10 and Chessie 8: mAbs other than F240 and T32, immobilized gp41MN
Experimental: Flat-bottom, 96-well Microtest ELISA plates (Sarstedt, Germany) were coated overnight at 4°C with recombinant HIV-1 gp120 (0.5 µg/ml), gp41 (0.22 µg/ml) proteins, or with streptavidin (4 µg/ml) in coating buffer (0.1 M NaHCO3, 0.1 M Na2CO3, pH 9.87). Nonspecific binding was blocked (blocking buffer: 1% BSA, 0.1% Tween-20 in phosphate buffer, pH 7.2) for 1 h at room temperature, followed by washing steps (wash buffer: 0.1% Tween in phosphate buffer, pH 7.2). Streptavidin-coated plates were then incubated with gp41 disulfide loop peptides (Loop36ox or Loop36s; 2.5 µM). All plates were then incubated with recombinant E2_340-Fc or Fc protein in serial dilutions in sample buffer (phosphate buffer, pH 7.2) for 3 hr at room temperature. To perform the competitive ELISAs, the recombinant E2_340-Fc protein was adjusted at 5 µg/ml and the monoclonal gp41 antibodies (246-D, F240, T32, D50, 2F5, 4E10, Chessie 8 [all: NIH AIDS Research and Reference Reagent Program], and 5F3 [Polymun, Austria]) at […]. After washing procedure, the plates were incubated for 1 h with polyclonal rabbit anti-human IgG peroxidase antibody (Dako, Germany) 1∶6000 in sample buffer and washed. Plates were developed with TMB peroxidase substrate solution (KPL, USA), or with OPD/H2O2 solution in the dark. Absorbances (ODs) were read at 450 or 492 nm, respectively, using a multi-channel photometer (ELISA-Reader AxSYM, Abbott Laboratory, USA).
(A) Illustration of gp41 variants (strains IIIB, MN) and peptides (N36, C34) used in ELISA as well as the binding epitopes of different monoclonal gp41 antibodies. Gp41 consists of the N-terminal fusion peptide (FP), the N- and C-heptad repeats (NHR, CHR) that are connected by the disulfide loop region (C-C loop), the membrane proximal external region (MPER), the α-helical transmembrane-spanning domain (TM), and the cytoplasmic tail (CP). […] Each sample was tested in triplicate. […] (C) Competitive binding of E2 peptides and different gp41 targeting mAbs to immobilized recombinant gp41MN. Simultaneously to mAb incubation E2 peptides were added with increasing amounts. […] The graphs show average values of three independent experiments each performed in duplicate.
Finally, we performed a direct binding assay with biotin-tagged 36mer gp41 disulfide loop peptides (residues from 588 to 623 according to HIV gp160HxB2) and GBV-C E2_340-Fc. We immobilized via streptavidin an oxidized (closed loop) or a linear variant of the disulfide loop, in which the cysteine residues were replaced with serine (Table S1) onto plates and the binding of graded concentrations of GBV-C E2_340-Fc was monitored with HRP-anti-human antibodies.

CCR5 = CCR5 surface expression, flow cytometry; assay type: cell-based, human; settings: PBMC and TZM-bl cells; E2 peptides 25 µM, RANTES 50 nM; 6 hr; FACS; RTCN vs mock; average of two independent experiments each in triplicate
Experimental: (§1) PHA/IL-2-stimulated PBMC or TZM-bl cells were incubated with E2 peptides (25 µM), phorbol 12-myristate 13-acetate (PMA; 40 ng/ml), SDF-1α (1 µg/ml) or RANTES (50 nM) for 6 hr. CD4, CXCR4 and CCR5 surface expression was analyzed by using standard FACS staining protocols. Cells were washed with PBS and incubated for 30 min at 4°C with PE-labeled antibodies (CD4 clone SK3, CXCR4 clone 12G5, and CCR5 clone 2D7, BD Biosciences, Germany). Subsequently, washed cells were resuspended in PBS and analyzed with a FACSCalibur™ flow cytometer (BD Biosciences, Germany).
(§2) The non-HIV-1-inhibitory peptide P28 derived from the C-terminal part of E2 (residue 271 to 290), served as a negative control.
(§3) CD4, CXCR4 and CCR5 expression on PBMC (A) and TZM-bl cells (B) after preincubation with E2 peptides were determined by flow cytometry analysis. […] Percentages illustrate the ratio-to-cell-negative (RTCN) values that were calculated from the percentage of positive cells and the fluorescence intensity of peptide-incubated cells compared to mock-incubated cells. Columns show average values ±SD of two independent experiments each performed in triplicate. *: p<0.05; **: p<0.01 (mock- vs. inhibitor-incubated cells).

CXCR4 = CXCR4 surface expression, flow cytometry; assay type: cell-based, human; settings: PBMC and TZM-bl cells; E2 peptides 25 µM, SDF-1α 1 µg/ml; 6 hr; FACS; RTCN vs mock; average of two independent experiments each in triplicate
Experimental: as §1, §2, §3

Compound | inhibition of virus-cell fusion, standard versus TAS conditions [1] | inhibition of F240 binding to gp41 (gp41MN) | inhibition of T32 binding to gp41 (gp41MN) | inhibition of gp41 binding of 246-D, D50, 5F3, 2F5, 4E10 and Chessie 8 (gp41MN) | CCR5 surface presentation (CCR5) | CXCR4 surface presentation (CXCR4)
CC(=O)N[C@@H](CC(C)C)C(=O)N[C@@H](CS)C(=O)N[C@@H](CC(=O)O)C(=O)N[C@@H](CS)C(=O)N1CCC[C@H]1C(=O)N[C@@H](CC(N)=O)C(=O)NCC(=O)N1CCC[C@H]1C(=O)N[C@@H](Cc1c[nH]c2ccccc12)C(=O)N[C@H](C(=O)N[C@@H](Cc1c[nH]c2ccccc12)C(=O)N[C@H](C(=O)N1CCC[C@H]1C(=O)N[C@@H](C)C(=O)N[C@@H](Cc1ccccc1)C(=O)N[C@@H](CS)C(=O)N[C@@H](CCC(N)=O)C(=O)N[C@@H](C)C(=O)N[C@H](C(=O)NCC(=O)O)C(C)C)C(C)C)C(C)C [P6-2] | full activity under both conditions | inhibited in a dose-dependent manner | inhibited in a dose-dependent manner | Of the eight antibodies, only the gp41 interaction of F240 and T32 was inhibited | no relevant effect on HIV-1 receptor presentation | no relevant effect on HIV-1 receptor presentation
Ac-WDRGNVTLLCDCPNGPWVWV [P4-7, 20 mer peptide presenting amino acids 37 to 56 of the GBV-C E2 protein] | full activity under both conditions | inhibited in a dose-dependent manner | inhibited in a dose-dependent manner | Of the eight antibodies, only the gp41 interaction of F240 and T32 was inhibited | no relevant effect on HIV-1 receptor presentation | no relevant effect on HIV-1 receptor presentation
